From ChEMBL document CHEMBL3352227, “Synthesis, antimycobacterial and antibacterial evaluation of l-[(1R, 2S)-2-fluorocyclopropyl]fluoroquinolone derivatives containing an oxime functional moiety” (Eur J Med Chem, 2014)
≈ marks a conversion by molar mass, not a printed value.

What follows are compounds tested on Escherichia coli (assay: Antibacterial activity against extended-spectrum beta-lactamase producing Escherichia coli 12-15 after 18 to 24 hrs by standard twofold serial dilution method).
Format: functional

| Compound | MIC |
| --- | --- |
| NC[C@H]1/C(=N\OCc2ccccc2)CN1c1cc2c(cc1F)c(=O)c(C(=O)O)cn2[C@@H]1C[C@@H]1F | > 128 µg/mL |

What follows are compounds tested on Klebsiella pneumoniae (assay: Antibacterial activity against extended-spectrum beta-lactamase producin Klebsiella pneumoniae 12-4 after 18 to 24 hrs by standard twofold serial dilution method).
Format: functional

| Compound | MIC |
| --- | --- |
| NC[C@H]1/C(=N\OCc2ccccc2)CN1c1cc2c(cc1F)c(=O)c(C(=O)O)cn2[C@@H]1C[C@@H]1F | 8 µg/mL (≈ 17.1 µM) |

What follows are compounds tested on Klebsiella pneumoniae (assay: Antibacterial activity against extended-spectrum beta-lactamase producin Klebsiella pneumoniae 12-7 after 18 to 24 hrs by standard twofold serial dilution method).
Format: functional

| Compound | MIC |
| --- | --- |
| NC[C@H]1/C(=N\OCc2ccccc2)CN1c1cc2c(cc1F)c(=O)c(C(=O)O)cn2[C@@H]1C[C@@H]1F | 1 µg/mL (≈ 2.13 µM) |

Each compound was assayed on Escherichia coli (assay: Antibacterial activity against Escherichia coli 12-1 after 18 to 24 hrs by standard twofold serial dilution method).
Format: functional

| Compound | MIC |
| --- | --- |
| NC[C@H]1/C(=N\OCc2ccccc2)CN1c1cc2c(cc1F)c(=O)c(C(=O)O)cn2[C@@H]1C[C@@H]1F | 2 µg/mL (≈ 4.27 µM) |

These compounds were tested on Staphylococcus aureus (assay: Antibacterial activity against methicillin-sensitive Staphylococcus aureus 12-4 after 18 to 24 hrs by standard twofold serial dilution method).
Format: functional

| Compound | MIC |
| --- | --- |
| NC[C@H]1/C(=N\OCc2ccccc2)CN1c1cc2c(cc1F)c(=O)c(C(=O)O)cn2[C@@H]1C[C@@H]1F | 0.03 µg/mL (≈ 0.064 µM) |

These compounds were tested on Staphylococcus aureus (assay: Antibacterial activity against methicillin-sensitive Staphylococcus aureus 12-1 after 18 to 24 hrs by standard twofold serial dilution method).
Format: functional

| Compound | MIC |
| --- | --- |
| NC[C@H]1/C(=N\OCc2ccccc2)CN1c1cc2c(cc1F)c(=O)c(C(=O)O)cn2[C@@H]1C[C@@H]1F | 0.125 µg/mL (≈ 0.267 µM) |

These compounds were tested on Klebsiella pneumoniae (assay: Antibacterial activity against Klebsiella pneumoniae 12-1 after 18 to 24 hrs by standard twofold serial dilution method).
Format: functional

| Compound | MIC |
| --- | --- |
| NC[C@H]1/C(=N\OCc2ccccc2)CN1c1cc2c(cc1F)c(=O)c(C(=O)O)cn2[C@@H]1C[C@@H]1F | 0.125 µg/mL (≈ 0.267 µM) |

The compounds below were run on Staphylococcus epidermidis (assay: Antibacterial activity against methicillin-sensitive Staphylococcus epidermidis 12-6 after 18 to 24 hrs by standard twofold serial dilution method).
Format: functional

| Compound | MIC |
| --- | --- |
| NC[C@H]1/C(=N\OCc2ccccc2)CN1c1cc2c(cc1F)c(=O)c(C(=O)O)cn2[C@@H]1C[C@@H]1F | 0.125 µg/mL (≈ 0.267 µM) |

These compounds were tested on Escherichia coli (assay: Antibacterial activity against extended-spectrum beta-lactamase producing Escherichia coli 12-14 after 18 to 24 hrs by standard twofold serial dilution method).
Format: functional

| Compound | MIC |
| --- | --- |
| NC[C@H]1/C(=N\OCc2ccccc2)CN1c1cc2c(cc1F)c(=O)c(C(=O)O)cn2[C@@H]1C[C@@H]1F | 64 µg/mL (≈ 137 µM) |

Each compound was assayed on Streptococcus pneumoniae (assay: Antibacterial activity against Streptococcus pneumoniae 12-18 after 18 to 24 hrs by standard twofold serial dilution method).
Format: functional

| Compound | MIC |
| --- | --- |
| NC[C@H]1/C(=N\OCc2ccccc2)CN1c1cc2c(cc1F)c(=O)c(C(=O)O)cn2[C@@H]1C[C@@H]1F | 1 µg/mL (≈ 2.13 µM) |

Each compound was assayed on Staphylococcus aureus (assay: Antibacterial activity against methicillin-resistant Staphylococcus aureus 12-2 after 18 to 24 hrs by standard twofold serial dilution method).
Format: functional

| Compound | MIC |
| --- | --- |
| NC[C@H]1/C(=N\OCc2ccccc2)CN1c1cc2c(cc1F)c(=O)c(C(=O)O)cn2[C@@H]1C[C@@H]1F | 16 µg/mL (≈ 34.2 µM) |

Each compound was assayed on Staphylococcus epidermidis (assay: Antibacterial activity against methicillin-sensitive Staphylococcus epidermidis 12-8 after 18 to 24 hrs by standard twofold serial dilution method).
Format: functional

| Compound | MIC |
| --- | --- |
| NC[C@H]1/C(=N\OCc2ccccc2)CN1c1cc2c(cc1F)c(=O)c(C(=O)O)cn2[C@@H]1C[C@@H]1F | 2 µg/mL (≈ 4.27 µM) |

The compounds below were run on Klebsiella pneumoniae (assay: Antibacterial activity against extended-spectrum beta-lactamase producin Klebsiella pneumoniae 12-14 after 18 to 24 hrs by standard twofold serial dilution method).
Format: functional

| Compound | MIC |
| --- | --- |
| NC[C@H]1/C(=N\OCc2ccccc2)CN1c1cc2c(cc1F)c(=O)c(C(=O)O)cn2[C@@H]1C[C@@H]1F | 64 µg/mL (≈ 137 µM) |

Each compound was assayed on Escherichia coli (assay: Antibacterial activity against extended-spectrum beta-lactamase producing Escherichia coli 12-3 after 18 to 24 hrs by standard twofold serial dilution method).
Format: functional

| Compound | MIC |
| --- | --- |
| NC[C@H]1/C(=N\OCc2ccccc2)CN1c1cc2c(cc1F)c(=O)c(C(=O)O)cn2[C@@H]1C[C@@H]1F | 16 µg/mL (≈ 34.2 µM) |

Each compound was assayed on Staphylococcus aureus (assay: Antibacterial activity against methicillin-sensitive Staphylococcus aureus 12-5 after 18 to 24 hrs by standard twofold serial dilution method).
Format: functional

| Compound | MIC |
| --- | --- |
| NC[C@H]1/C(=N\OCc2ccccc2)CN1c1cc2c(cc1F)c(=O)c(C(=O)O)cn2[C@@H]1C[C@@H]1F | 0.125 µg/mL (≈ 0.267 µM) |

What follows are compounds tested on Staphylococcus aureus (assay: Antibacterial activity against methicillin-resistant Staphylococcus aureus 12-5 after 18 to 24 hrs by standard twofold serial dilution method).
Format: functional

| Compound | MIC |
| --- | --- |
| NC[C@H]1/C(=N\OCc2ccccc2)CN1c1cc2c(cc1F)c(=O)c(C(=O)O)cn2[C@@H]1C[C@@H]1F | 8 µg/mL (≈ 17.1 µM) |

Each compound was assayed on Pseudomonas aeruginosa (assay: Antibacterial activity against Pseudomonas aeruginosa 12-12 after 18 to 24 hrs by standard twofold serial dilution method).
Format: functional

| Compound | MIC |
| --- | --- |
| NC[C@H]1/C(=N\OCc2ccccc2)CN1c1cc2c(cc1F)c(=O)c(C(=O)O)cn2[C@@H]1C[C@@H]1F | 2 µg/mL (≈ 4.27 µM) |

What follows are compounds tested on Escherichia coli (assay: Antibacterial activity against Escherichia coli ATCC 25922 after 18 to 24 hrs by standard twofold serial dilution method).
Format: functional

| Compound | MIC |
| --- | --- |
| NC[C@H]1/C(=N\OCc2ccccc2)CN1c1cc2c(cc1F)c(=O)c(C(=O)O)cn2[C@@H]1C[C@@H]1F | 0.125 µg/mL (≈ 0.267 µM) |

The compounds below were run on Staphylococcus aureus (assay: Antibacterial activity against Staphylococcus aureus ATCC 25923 after 18 to 24 hrs by standard twofold serial dilution method).
Format: functional

| Compound | MIC |
| --- | --- |
| NC[C@H]1/C(=N\OCc2ccccc2)CN1c1cc2c(cc1F)c(=O)c(C(=O)O)cn2[C@@H]1C[C@@H]1F | 0.015 µg/mL (≈ 0.032 µM) |

Each compound was assayed on Klebsiella pneumoniae (assay: Antibacterial activity against Klebsiella pneumoniae 12-2 after 18 to 24 hrs by standard twofold serial dilution method).
Format: functional

| Compound | MIC |
| --- | --- |
| NC[C@H]1/C(=N\OCc2ccccc2)CN1c1cc2c(cc1F)c(=O)c(C(=O)O)cn2[C@@H]1C[C@@H]1F | 0.06 µg/mL (≈ 0.128 µM) |

These compounds were tested on Mycobacterium tuberculosis (assay: Antimycobacterial activity against Mycobacterium tuberculosis H37Rv ATCC 27294 by MABA method).
Format: functional

| Compound | MIC |
| --- | --- |
| NC[C@H]1/C(=N\OCc2ccccc2)CN1c1cc2c(cc1F)c(=O)c(C(=O)O)cn2[C@@H]1C[C@@H]1F | 0.5 µg/mL (≈ 1.07 µM) |

The compounds below were run on Klebsiella pneumoniae (assay: Antibacterial activity against extended-spectrum beta-lactamase producin Klebsiella pneumoniae 12-3 after 18 to 24 hrs by standard twofold serial dilution method).
Format: functional

| Compound | MIC |
| --- | --- |
| NC[C@H]1/C(=N\OCc2ccccc2)CN1c1cc2c(cc1F)c(=O)c(C(=O)O)cn2[C@@H]1C[C@@H]1F | 32 µg/mL (≈ 68.3 µM) |

What follows are compounds tested on Staphylococcus epidermidis (assay: Antibacterial activity against methicillin-sensitive Staphylococcus epidermidis 12-1 after 18 to 24 hrs by standard twofold serial dilution method).
Format: functional

| Compound | MIC |
| --- | --- |
| NC[C@H]1/C(=N\OCc2ccccc2)CN1c1cc2c(cc1F)c(=O)c(C(=O)O)cn2[C@@H]1C[C@@H]1F | 0.125 µg/mL (≈ 0.267 µM) |

The compounds below were run on Staphylococcus epidermidis (assay: Antibacterial activity against methicillin-resistant Staphylococcus epidermidis 12-1 after 18 to 24 hrs by standard twofold serial dilution method).
Format: functional

| Compound | MIC |
| --- | --- |
| NC[C@H]1/C(=N\OCc2ccccc2)CN1c1cc2c(cc1F)c(=O)c(C(=O)O)cn2[C@@H]1C[C@@H]1F | 4 µg/mL (≈ 8.54 µM) |

The compounds below were run on Staphylococcus aureus (assay: Antibacterial activity against methicillin-resistant Staphylococcus aureus 12-4 after 18 to 24 hrs by standard twofold serial dilution method).
Format: functional

| Compound | MIC |
| --- | --- |
| NC[C@H]1/C(=N\OCc2ccccc2)CN1c1cc2c(cc1F)c(=O)c(C(=O)O)cn2[C@@H]1C[C@@H]1F | 16 µg/mL (≈ 34.2 µM) |

The compounds below were run on Pseudomonas aeruginosa (assay: Antibacterial activity against Pseudomonas aeruginosa 12-14 after 18 to 24 hrs by standard twofold serial dilution method).
Format: functional

| Compound | MIC |
| --- | --- |
| NC[C@H]1/C(=N\OCc2ccccc2)CN1c1cc2c(cc1F)c(=O)c(C(=O)O)cn2[C@@H]1C[C@@H]1F | 6 µg/mL (≈ 12.8 µM) |

These compounds were tested on Staphylococcus epidermidis (assay: Antibacterial activity against methicillin-sensitive Staphylococcus epidermidis 12-3 after 18 to 24 hrs by standard twofold serial dilution method).
Format: functional

| Compound | MIC |
| --- | --- |
| NC[C@H]1/C(=N\OCc2ccccc2)CN1c1cc2c(cc1F)c(=O)c(C(=O)O)cn2[C@@H]1C[C@@H]1F | 0.25 µg/mL (≈ 0.534 µM) |

Each compound was assayed on Staphylococcus aureus (assay: Antibacterial activity against methicillin-sensitive Staphylococcus aureus 12-2 after 18 to 24 hrs by standard twofold serial dilution method).
Format: functional

| Compound | MIC |
| --- | --- |
| NC[C@H]1/C(=N\OCc2ccccc2)CN1c1cc2c(cc1F)c(=O)c(C(=O)O)cn2[C@@H]1C[C@@H]1F | 0.03 µg/mL (≈ 0.064 µM) |

Each compound was assayed on Klebsiella pneumoniae (assay: Antibacterial activity against Klebsiella pneumoniae 12-4 after 18 to 24 hrs by standard twofold serial dilution method).
Format: functional

| Compound | MIC |
| --- | --- |
| NC[C@H]1/C(=N\OCc2ccccc2)CN1c1cc2c(cc1F)c(=O)c(C(=O)O)cn2[C@@H]1C[C@@H]1F | 0.25 µg/mL (≈ 0.534 µM) |

These compounds were tested on Staphylococcus epidermidis (assay: Antibacterial activity against methicillin-resistant Staphylococcus epidermidis 12-6 after 18 to 24 hrs by standard twofold serial dilution method).
Format: functional

| Compound | MIC |
| --- | --- |
| NC[C@H]1/C(=N\OCc2ccccc2)CN1c1cc2c(cc1F)c(=O)c(C(=O)O)cn2[C@@H]1C[C@@H]1F | 16 µg/mL (≈ 34.2 µM) |

What follows are compounds tested on Escherichia coli (assay: Antibacterial activity against extended-spectrum beta-lactamase producing Escherichia coli 12-2 after 18 to 24 hrs by standard twofold serial dilution method).
Format: functional

| Compound | MIC |
| --- | --- |
| NC[C@H]1/C(=N\OCc2ccccc2)CN1c1cc2c(cc1F)c(=O)c(C(=O)O)cn2[C@@H]1C[C@@H]1F | 128 µg/mL (≈ 273 µM) |

Each compound was assayed on Streptococcus pneumoniae (assay: Antibacterial activity against Streptococcus pneumoniae ATCC 49619 after 18 to 24 hrs by standard twofold serial dilution method).
Format: functional

| Compound | MIC |
| --- | --- |
| NC[C@H]1/C(=N\OCc2ccccc2)CN1c1cc2c(cc1F)c(=O)c(C(=O)O)cn2[C@@H]1C[C@@H]1F | 0.25 µg/mL (≈ 0.534 µM) |
